Laboratory results from the NIST ThermoML archive (doi:10.1021/acs.jced.5b00845).

Test: mn = molality of the nth substance listed, in mol/kg
Conditions: 100 kPa, Liquid, Capillary tube (Ostwald / Ubbelohde) method

OC[C@H]1O[C@@](CO)(O[C@H]2O[C@H](CO)[C@@H](O)[C@H](O)[C@H]2O)[C@@H](O[C@H]2O[C@H](CO)[C@@H](O)[C@H](O)[C@H]2O)[C@@H]1O + O
viscosity [mPa·s]
Conditions	m1 = 0.06211	m1 = 0.07242	m1 = 0.08043	m1 = 0.09028	m1 = 0.1045	m1 = 0.1256	m1 = 0.1344	m1 = 0.1457
288.15 K	1.237	1.253	1.266	1.281	1.303	1.335	1.348	1.365
298.15 K	0.965	0.977	0.987	0.998	1.015	1.039	1.049	1.061
308.15 K	0.777	0.786	0.793	0.802	0.815	0.833	0.841	0.851
318.15 K	0.642	0.65	0.655	0.663	0.673	0.687	0.694	0.701

O=CC[C@H](O)[C@H](O)CO [2-deoxy-D-erythropentose] + O
viscosity [mPa·s]
Conditions	m1 = 0.05709	m1 = 0.07583	m1 = 0.09188	m1 = 0.09812	m1 = 0.1124	m1 = 0.1366	m1 = 0.1466
288.15 K	1.163	1.172	1.179	1.181	1.188	1.198	1.202
298.15 K	0.909	0.915	0.92	0.922	0.927	0.935	0.938
308.15 K	0.734	0.738	0.742	0.744	0.747	0.753	0.755
318.15 K	0.607	0.611	0.614	0.615	0.618	0.623	0.624

OC[C@H]1OC(O)C[C@@H](O)[C@@H]1O (stereo partly drawn) [2-deoxy-D-glucose] + O
viscosity [mPa·s]
Conditions	m1 = 0.04241	m1 = 0.05017	m1 = 0.05842	m1 = 0.08671	m1 = 0.09745	m1 = 0.1223	m1 = 0.141
288.15 K	1.16	1.164	1.168	1.182	1.188	1.2	1.21
298.15 K	0.907	0.909	0.913	0.923	0.927	0.936	0.943
308.15 K	0.732	0.734	0.736	0.744	0.747	0.754	0.76
318.15 K	0.606	0.608	0.609	0.616	0.618	0.624	0.628

O=C[C@H](O)[C@@H](O)[C@H](O[C@@H]1O[C@H](CO)[C@H](O)[C@H](O)[C@H]1O)[C@H](O)CO [4-O-β-D-galactopyranosyl-D-glucose] + O
viscosity [mPa·s]
Conditions	m1 = 0.04915	m1 = 0.0521	m1 = 0.06429	m1 = 0.07299	m1 = 0.09149	m1 = 0.1001	m1 = 0.1211	m1 = 0.1528
288.15 K	1.198	1.202	1.216	1.227	1.249	1.259	1.284	1.321
298.15 K	0.936	0.938	0.949	0.957	0.974	0.982	1	1.028
308.15 K	0.755	0.757	0.766	0.772	0.785	0.791	0.806	0.828
318.15 K	0.625	0.626	0.633	0.638	0.649	0.654	0.665	0.683

C[C@@H]1O[C@@H](O)[C@H](O)[C@H](O)[C@H]1O [6-deoxy-α-L-mannopyranose] + O
viscosity [mPa·s]
Conditions	m1 = 0.04655	m1 = 0.05637	m1 = 0.08317	m1 = 0.0856	m1 = 0.1109	m1 = 0.1248	m1 = 0.1471
288.15 K	1.165	1.171	1.186	1.187	1.202	1.21	1.222
298.15 K	0.91	0.914	0.925	0.926	0.937	0.943	0.952
308.15 K	0.734	0.737	0.746	0.747	0.755	0.759	0.766
318.15 K	0.608	0.61	0.617	0.618	0.623	0.627	0.632

OC[C@H]1O[C@@H](O[C@H]2[C@H](O)[C@@H](O)[C@H](O)O[C@@H]2CO)[C@H](O)[C@@H](O)[C@@H]1O [D-cellobiose] + O
viscosity [mPa·s]
Conditions	m1 = 0.0502	m1 = 0.06216	m1 = 0.07229	m1 = 0.08229	m1 = 0.09269	m1 = 0.1031	m1 = 0.1292	m1 = 0.152
288.15 K	1.19	1.202	1.212	1.222	1.233	1.243	1.269	1.291
298.15 K	0.929	0.938	0.946	0.953	0.961	0.969	0.988	1.005
308.15 K	0.749	0.756	0.762	0.768	0.774	0.78	0.795	0.808
318.15 K	0.62	0.625	0.63	0.635	0.64	0.644	0.656	0.666

O=C[C@H](O)[C@@H](O)[C@H](O)[C@H](O)CO [D-glucose] + O
viscosity [mPa·s]
Conditions	m1 = 0.05335	m1 = 0.06616	m1 = 0.08424	m1 = 0.1038	m1 = 0.1142	m1 = 0.1323
288.15 K	1.167	1.175	1.185	1.196	1.202	1.211
298.15 K	0.912	0.918	0.924	0.932	0.936	0.943
308.15 K	0.736	0.74	0.744	0.75	0.754	0.759
318.15 K	0.609	0.612	0.616	0.621	0.623	0.628

O=C[C@@H](O)[C@@H](O)[C@H](O)[C@H](O)CO [D-mannose] + O
viscosity [mPa·s]
Conditions	m1 = 0.0537	m1 = 0.07266	m1 = 0.08053	m1 = 0.08978	m1 = 0.1058	m1 = 0.1176
288.15 K	1.169	1.179	1.184	1.189	1.199	1.206
298.15 K	0.912	0.92	0.924	0.928	0.934	0.939
308.15 K	0.736	0.741	0.744	0.747	0.753	0.756
318.15 K	0.609	0.614	0.616	0.618	0.622	0.625

OC[C@H]1O[C@H](OC[C@H]2O[C@H](O[C@]3(CO)O[C@H](CO)[C@@H](O)[C@@H]3O)[C@H](O)[C@@H](O)[C@@H]2O)[C@H](O)[C@@H](O)[C@H]1O [D-raffinose] + O
viscosity [mPa·s]
Conditions	m1 = 0.0515	m1 = 0.06262	m1 = 0.08002	m1 = 0.09691	m1 = 0.1085	m1 = 0.1133	m1 = 0.1273	m1 = 0.1387
288.15 K	1.227	1.246	1.275	1.303	1.322	1.33	1.353	1.371
298.15 K	0.957	0.971	0.993	1.014	1.028	1.034	1.051	1.065
308.15 K	0.771	0.782	0.799	0.816	0.827	0.831	0.845	0.855
318.15 K	0.637	0.646	0.659	0.672	0.681	0.684	0.695	0.703

O=C[C@H](O)[C@H](O)[C@H](O)CO [D-ribose] + O
viscosity [mPa·s]
Conditions	m1 = 0.05682	m1 = 0.06586	m1 = 0.07814	m1 = 0.09455	m1 = 0.1051	m1 = 0.1285
288.15 K	1.159	1.163	1.168	1.174	1.178	1.187
298.15 K	0.906	0.909	0.912	0.917	0.919	0.926
308.15 K	0.731	0.733	0.736	0.739	0.741	0.746
318.15 K	0.605	0.607	0.609	0.612	0.614	0.618

OC[C@H]1O[C@@](CO)(O[C@H]2O[C@H](CO)[C@@H](O)[C@H](O)[C@H]2O)[C@@H](O)[C@@H]1O [D-sucrose] + O
viscosity [mPa·s]
Conditions	m1 = 0.05768	m1 = 0.06994	m1 = 0.07682	m1 = 0.08384	m1 = 0.09221	m1 = 0.1103	m1 = 0.1237	m1 = 0.1437
288.15 K	1.205	1.219	1.227	1.235	1.244	1.265	1.28	1.302
298.15 K	0.941	0.951	0.957	0.963	0.97	0.986	0.997	1.014
308.15 K	0.758	0.766	0.771	0.776	0.781	0.793	0.802	0.815
318.15 K	0.627	0.634	0.637	0.641	0.645	0.655	0.662	0.672

O=C[C@H](O)[C@@H](O)[C@H](O)CO [D-xylose] + O
viscosity [mPa·s]
Conditions	m1 = 0.05317	m1 = 0.06636	m1 = 0.07781	m1 = 0.08585	m1 = 0.1009	m1 = 0.1145
288.15 K	1.159	1.165	1.169	1.173	1.179	1.185
298.15 K	0.906	0.91	0.914	0.917	0.921	0.925
308.15 K	0.732	0.735	0.737	0.739	0.743	0.746
318.15 K	0.606	0.608	0.61	0.612	0.614	0.618

N.O=P(O)(O)O [ammonium dihydrogen phosphate] + O
viscosity [mPa·s]
Conditions	288.15 K	298.15 K	308.15 K	318.15 K
m1 = 0.5	1.29	1.014	0.822	0.659
m1 = 1	1.472	1.172	0.942	0.741
m1 = 1.5	1.672	1.332	1.049	0.822
m1 = 2	1.831	1.463	1.161	0.908

CO[C@H]1O[C@H](CO)[C@@H](O)[C@H](O)[C@H]1O [methyl-α-D-glucopyranoside] + O
viscosity [mPa·s]
Conditions	m1 = 0.06502	m1 = 0.07733	m1 = 0.09597	m1 = 0.1109	m1 = 0.1219	m1 = 0.122	m1 = 0.1465
288.15 K	1.174	1.181	1.191	1.2	1.207	1.206	1.219
298.15 K	0.917	0.922	0.929	0.935	0.941	0.94	0.95
308.15 K	0.74	0.744	0.749	0.754	0.758	0.757	0.765
318.15 K	0.612	0.615	0.619	0.623	0.625	0.626	0.631

O=P([O-])(O)O.[K+] [monopotassium phosphate] + O
viscosity [mPa·s]
Conditions	288.15 K	298.15 K	308.15 K	318.15 K
m1 = 0.25	1.236	0.972	0.777	0.633
m1 = 0.5	1.301	1.025	0.815	0.666
m1 = 1	1.539	1.159	0.939	0.763
m1 = 1.25	1.636	1.294	1.027	0.84
